{
  "source": "ChEMBL document CHEMBL3352275",
  "about": "“2-Aminothiazole derivatives as antimycobacterial agents: Synthesis, characterization, in vitro and in silico studies” (Eur J Med Chem, 2014)",
  "data": [
    {"system": "Mycobacterium tuberculosis", "assay": "Antimycobacterial activity against Mycobacterium tuberculosis H37Rv after 5 days by resazurin-based microdilution method", "type": "functional", "settings": "120 h", "units": {"MIC": "µM"}, "values": [
      {"smiles": "Oc1ccc(Nc2nc(-c3ccc(Cl)cc3)cs2)cc1", "MIC": 200},
      {"smiles": "COc1ccc(-c2csc(Nc3ccc(O)cc3)n2)cc1", "MIC": "> 200"},
      {"smiles": "COc1ccc(-c2csc(Nc3cccc(C)n3)n2)cc1", "MIC": "> 200"},
      {"smiles": "Fc1ccc(Nc2nc(-c3cccnc3)cs2)cc1", "MIC": "> 200"},
      {"smiles": "Cc1cccnc1Nc1nc(-c2ccc(Br)cc2)c(Br)s1", "MIC": "> 200"},
      {"smiles": "Fc1ccc(Nc2nc(-c3ccc(Cl)cc3)cs2)cc1", "MIC": 12.5},
      {"smiles": "Fc1ccc(Nc2nc(-c3ccc(Br)cc3)cs2)cc1", "MIC": 25},
      {"smiles": "Cc1sc(Nc2ccc(F)cc2)nc1-c1ccc(Br)cc1", "MIC": 100},
      {"smiles": "Fc1ccc(Nc2nc(-c3ccc(Br)cc3)c(Br)s2)cc1", "MIC": 25},
      {"smiles": "Fc1ccc(Nc2nc(-c3ccc4ccccc4c3)cs2)cc1", "MIC": 100},
      {"smiles": "COc1ccc(-c2csc(Nc3ccc(F)cc3)n2)cc1", "MIC": 12.5},
      {"smiles": "COc1ccc(-c2csc(Nc3ccc(Cl)cc3[N+](=O)[O-])n2)cc1", "MIC": 12.5},
      {"smiles": "O=[N+]([O-])c1cc(Cl)ccc1Nc1nc(-c2ccc3ccccc3c2)cs1", "MIC": "> 200"},
      {"smiles": "O=[N+]([O-])c1cc(Cl)ccc1Nc1nc(-c2ccccn2)cs1", "MIC": "> 200"},
      {"smiles": "O=[N+]([O-])c1cc(Cl)ccc1Nc1nc(-c2cccnc2)cs1", "MIC": "> 200"},
      {"smiles": "O=[N+]([O-])c1cc(Cl)ccc1Nc1nc(-c2ccncc2)cs1", "MIC": "> 200"},
      {"smiles": "Brc1ccc(-c2csc(Nc3ccccn3)n2)cc1", "MIC": "> 200"},
      {"smiles": "Cc1sc(Nc2ccccn2)nc1-c1ccc(Br)cc1", "MIC": "> 200"},
      {"smiles": "Brc1ccc(-c2nc(Nc3ccccn3)sc2Br)cc1", "MIC": "> 200"},
      {"smiles": "Cc1cccnc1Nc1nc(-c2ccc(Cl)c(Cl)c2)cs1", "MIC": "> 200"},
      {"smiles": "Cc1cccnc1Nc1nc(-c2ccc(Br)cc2)c(C)s1", "MIC": 100},
      {"smiles": "Cc1cccc(Nc2nc(-c3ccc(Cl)c(Cl)c3)cs2)n1", "MIC": "> 200"},
      {"smiles": "Cc1cccc(Nc2nc(-c3ccc(Br)cc3)c(C)s2)n1", "MIC": "> 200"},
      {"smiles": "Cc1cccc(Nc2nc(-c3cccc4ccccc34)cs2)n1", "MIC": "> 200"},
      {"smiles": "Cc1cccnc1Nc1nc(-c2cccnc2)cs1", "MIC": "> 200"},
      {"smiles": "Cc1cccc(Nc2nc(-c3ccncc3)cs2)n1", "MIC": 100},
      {"smiles": "Cc1cccnc1Nc1nc(-c2ccncc2)cs1", "MIC": "> 200"},
      {"smiles": "Oc1ccc(Nc2nc(-c3cccnc3)cs2)cc1", "MIC": "> 200"},
      {"smiles": "c1ccc(Nc2nc(-c3cccnc3)cs2)nc1", "MIC": "> 200"},
      {"smiles": "Oc1ccc(Nc2nc(-c3ccncc3)cs2)cc1", "MIC": "> 200"},
      {"smiles": "Fc1ccc(Nc2nc(-c3ccncc3)cs2)cc1", "MIC": 25}
    ]},
    {"molecular_target": "not listed separately", "assay": "Binding affinity to Mycobacterium tuberculosis beta-Ketoacyl-ACP Synthase", "settings": "not given", "units": {"Ki": "nM"}, "values": [
      {"smiles": "Fc1ccc(Nc2nc(-c3ccc(Br)cc3)cs2)cc1", "Ki": 1280},
      {"smiles": "Brc1ccc(Nc2nc(-c3ccncc3)cs2)cc1", "Ki": 440},
      {"smiles": "Cc1cccc(Nc2nc(-c3ccncc3)cs2)n1", "Ki": 30200}
    ]}
  ]
}
